Source: patent publication US8030016B2, “Method for screening for vitamin D receptor ligands” (Teijin Pharma Limited, priority 2006, dated 2011)

B1: TRAP100, endogenous protein in nuclear protein extracts (other, human, UniProt O75448 1-989, looked up)
chain: MKVVNLKQAILQAWKERWSDYQWAINMKKFFPKGATWDILNLADALLEQAMIGPSPNPLILSYLKYAISSQMVSYSSVLTAISKFDDFSRDLCVQALLDIMDMFCDRLSCHGKAEECIGLCRALLSALHWLLRCTAASAERLREGLEAGTPAAGEKQLAMCLQRLEKTLSSTKNRALLHIAKLEEASSWTAIEHSLLKLGEILANLSNPQLRSQAEQCGTLIRSIPTMLSVHAEQMHKTGFPTVHAVILLEGTMNLTGETQSLVEQLTMVKRMQHIPTPLFVLEIWKACFVGLIESPEGTEELKWTAFTFLKIPQVLVKLKKYSHGDKDFTEDVNCAFEFLLKLTPLLDKADQRCNCDCTNFLLQECGKQGLLSEASVNNLMAKRKADREHAPQQKSGENANIQPNIQLILRAEPTVTNILKTMDADHSKSPEGLLGVLGHMLSGKSLDLLLAAAAATGKLKSFARKFINLNEFTTYGSEESTKPASVRALLFDISFLMLCHVAQTYGSEVILSESRTGAEVPFFETWMQTCMPEEGKILNPDHPCFRPDSTKVESLVALLNNSSEMKLVQMKWHEACLSISAAILEILNAWENGVLAFESIQKITDNIKGKVCSLAVCAVAWLVAHVRMLGLDEREKSLQMIRQLAGPLFSENTLQFYNERVVIMNSILERMCADVLQQTATQIKFPSTGVDTMPYWNLLPPKRPIKEVLTDIFAKVLEKGWVDSRSIHIFDTLLHMGGVYWFCNNLIKELLKETRKEHTLRAVELLYSIFCLDMQQVTLVLLGHILPGLLTDSSKWHSLMDPPGTALAKLAVWCALSSYSSHKGQASTRQKKRHREDIEDYISLFPLDDVQPSKLMRLLSSNEDDANILSSPTDRSMSSSLSASQLHTVNMRDPLNRVLANLFLLISSILGSRTAGPHTQFVQWFMEECVDCLEQGGRGSVLQFMPFTTVSELVKVSAMSSPKVVLAITDLSLPLGRQVAAKAIAAL

Assays:
[1] = system: SaM-1 cells; experiment: Gene expression during osteoblast differentiation of SaM-1 cells, real-time RT-PCR; type: cell-based, human; details: various concentrations, up to 28 days, relative to beta actin
Text: The medium was replaced every 2 to 3 days. Cells were recovered at the fourth day, seventh day, fourteenth day, and twenty-eighth day until the final differentiation (calcification) on the twenty-eighth day. Total RNA was extracted using an RNeasy Mini Kit (QIAGEN, Product No. 74104) and cDNA synthesized using an Ommniscript RTKit (QIAGEN, Product No. 205110). The cDNA was mixed with SYBR Green PCR Master Mix (Applied Biosystems, Product No. 4367659) and primer oligos suitable for amplifying various types of genes. Variation in the gene expression of the alkaline phosphatase which is a marker for osteoblast differentiation, CDP and osteocalcin, and beta actin which is known as a universally expressed housekeeping gene was examined by real-time RT-PCR using a GeneAmp 5700 Sequence Detection System (Applied Biosystems) or ABI PRISM 7000 Sequence Detection System (Applied Biosystems). Oligos complementary to the various genes were designed by general methods and synthesized by Sigma Genosys. The results are shown by relative values with respect to the amount of expression of beta actin. […] The value for the relative amount of expression is calculated using the formula 2^−(ΔΔCT of target gene−ΔΔCT of beta actin).

[2] = system: HOS cells; experiment: Gene expression in HOS cells transfected with pSPORT6-CDP, real-time RT-PCR; type: cell-based, human; details: HOS cells with CDP introduced, various concentrations, three days, relative to GAPDH
Description: After three days, cells were recovered, and total RNA was extracted using an RNeasy Mini Kit (QIAGEN, Product No. 74104). Reverse transcription reactions were performed by oligo dT primers using SuperScriptlll RT (Invitrogen, 18080-044) and the amount of expression of various genes was determined using real-time RT-PCR (Applied Biosystems, GeneAmp7000). The amount of gene expression was corrected using GAPDH which is a housekeeping gene and shown as a relative figure of GAPDH and the amount of respective gene expression. The formula used is the same as that used in Example 5.

[3] = system: human CYP24 gene promoter; experiment: Dual luciferase assay, human CYP24 gene promoter in HOS cells; type: cell-based; details: 10^−8 M, 24 hours
Description: (§1) In order to determine whether or not CDP expression increases VDR ligand-dependent transcription activity, a dual luciferase assay was performed using transient transfection in the same manner as Example 6. The reporter vector used in the dual luciferase assay was a pGL4 vector containing a sequence of human CYP24 gene promoter or a sequence of a human osteocalcin gene promoter upstream of the luciferase gene. The pGL4 vector was commercially obtained from Promega. Furthermore, a DNA sequence encoding a region of 4-427 amino acid residues for human VDR was introduced into a pTracerCMV2 vector (Invitrogen) in order to construct a human VDR expression plasmid. The expression vector for intracellular expression of the CDP protein was the pSPORT6-CDP vector used in Example 4. HOS cells used in the assay were cultured in DMEM medium containing 10% FBS and were passaged every two or three days. The culturing conditions were 37° C., 5% CO2. […] The medium was removed after 24 hours and after washing once in PBS(−), luciferase activity was determined by a Dual-Luciferase Assay kit (Promega) using a luminometer (Bethold Japan). The results were expressed as a “transcription activation” being the value represented by (firefly luciferase activity)/(renilla luciferase activity). […]

[4] = system: human osteocalcin gene promoter; experiment: Dual luciferase assay, human osteocalcin gene promoter in HOS cells; type: cell-based; details: 10^−8 M, 24 hours, endogenous VDR
Description: as §1

[5] = system: HOS-TE85 cells; experiment: Differentiation of HOS-TE85 cells in culture; type: cell-based; details: culturing in the presence of the compound
[6] = system: HeLa cells; experiment: Differentiation of HeLa cells in culture; type: cell-based; details: culturing in the presence of the compound
[7] = system: MCF-7 cells; experiment: Differentiation of MCF-7 cells in culture; type: cell-based; details: culturing in the presence of the compound
[8] = system: SaM-1 cells; experiment: Alkaline phosphatase staining of SaM-1 cells infected with Ad-CDP or Ad-mock; details: 10^−8−10^−7 M, seven days
Description: The cells were used to inoculate a 24 well multi-well plate and cultured. When the cells reached 80% confluence, the medium was exchanged for a proliferation medium containing the virus, cultured overnight in order to infect the cells with the virus. Then the medium was exchange for a proliferation medium not containing a virus. […] The medium was exchanged every two days and cultured for seven days. After seven days culturing, alkaline phosphatase staining was performed.

[9] = target: T1, CCAAT Displacement Protein (CDP), endogenous protein in nuclear protein extracts (human, UniProt P39880 1-1505, limits assumed); experiment: immunoprecipitation with anti-CDP antibody of the glutathione eluate of GST-VDR-bound HOS nuclear proteins (with 1,25(OH)2D3); western blot
T1 construct: Endogenous protein of nuclear extracts from HOS (human osteoblast cell strain), HeLa or Caco-2 cells; also called CUTL1; CUX
T1 sequence (P39880 whole entry): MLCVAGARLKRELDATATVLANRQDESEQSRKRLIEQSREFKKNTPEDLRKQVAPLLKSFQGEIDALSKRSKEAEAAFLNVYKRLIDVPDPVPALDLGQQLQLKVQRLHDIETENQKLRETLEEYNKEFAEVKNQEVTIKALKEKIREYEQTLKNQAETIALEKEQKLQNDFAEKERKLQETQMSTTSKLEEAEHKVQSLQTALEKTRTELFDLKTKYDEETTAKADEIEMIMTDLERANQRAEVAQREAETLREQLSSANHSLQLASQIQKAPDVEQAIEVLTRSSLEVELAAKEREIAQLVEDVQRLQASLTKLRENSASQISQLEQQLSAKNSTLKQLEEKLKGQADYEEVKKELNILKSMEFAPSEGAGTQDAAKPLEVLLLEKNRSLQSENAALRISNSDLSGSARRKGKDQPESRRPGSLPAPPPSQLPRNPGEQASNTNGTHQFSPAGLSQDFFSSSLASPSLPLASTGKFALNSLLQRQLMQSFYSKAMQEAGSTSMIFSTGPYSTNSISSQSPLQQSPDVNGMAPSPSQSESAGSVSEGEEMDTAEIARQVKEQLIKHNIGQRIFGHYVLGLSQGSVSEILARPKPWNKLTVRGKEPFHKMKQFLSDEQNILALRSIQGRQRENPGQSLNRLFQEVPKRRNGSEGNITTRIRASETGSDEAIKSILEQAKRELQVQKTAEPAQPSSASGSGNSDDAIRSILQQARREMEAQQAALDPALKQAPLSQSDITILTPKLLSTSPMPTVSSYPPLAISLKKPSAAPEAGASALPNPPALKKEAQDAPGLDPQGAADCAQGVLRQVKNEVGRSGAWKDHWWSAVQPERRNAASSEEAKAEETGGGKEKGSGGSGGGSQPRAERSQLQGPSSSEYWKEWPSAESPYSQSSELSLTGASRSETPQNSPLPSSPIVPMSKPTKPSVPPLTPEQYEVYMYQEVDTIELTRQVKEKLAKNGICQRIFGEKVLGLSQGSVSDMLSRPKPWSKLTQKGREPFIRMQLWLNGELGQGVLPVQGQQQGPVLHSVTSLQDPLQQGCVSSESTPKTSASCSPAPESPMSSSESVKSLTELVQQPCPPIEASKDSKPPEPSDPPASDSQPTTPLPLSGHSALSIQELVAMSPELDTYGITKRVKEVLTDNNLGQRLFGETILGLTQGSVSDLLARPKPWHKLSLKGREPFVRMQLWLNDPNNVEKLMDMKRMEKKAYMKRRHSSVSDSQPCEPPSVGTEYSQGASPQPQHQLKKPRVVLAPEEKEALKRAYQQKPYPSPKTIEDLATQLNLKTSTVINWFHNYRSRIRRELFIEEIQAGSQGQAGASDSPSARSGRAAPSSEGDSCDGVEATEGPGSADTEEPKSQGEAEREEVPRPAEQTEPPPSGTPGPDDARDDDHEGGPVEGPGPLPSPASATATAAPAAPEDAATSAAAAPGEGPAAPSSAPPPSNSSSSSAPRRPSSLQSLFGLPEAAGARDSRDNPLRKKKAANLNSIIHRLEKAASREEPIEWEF

binding result [9] | Molecule | gene expression of CDP [1] | gene expression of osteocalcin [1] | gene expression of CYP24 [2] | gene expression of alkaline phosphatase (ALP) [2] | gene expression of osteocalcin [2] | VDR-mediated transcription activation of a human CYP24 promoter [3] | VDR-mediated transcription activation of a human CYP24 promoter when CDP is expressed ([3]; pSPORT6-CDP co-transfected) | VDR-mediated transcription activation of a human osteocalcin promoter [4] | VDR-mediated transcription activation of a human osteocalcin promoter when CDP is expressed ([4]; pSPORT6-CDP co-transfected) | cell differentiation [5] | cell differentiation [6] | cell differentiation [7] | number of alkaline phosphatase-positive cells ([8]; Ad-CDP group (CDP over-expressed)) | number of alkaline phosphatase-positive cells ([8]; Ad-mock group)
– | C=C1/C(=C\C=C2/CCC[C@]3(C)[C@@H]([C@H](C)CCCC(C)(C)O)CC[C@@H]23)C[C@@H](O)C[C@@H]1O [1,25 (OH)2D3, 1α,25-dihydroxyvitamin D3] | increase | increase | increased | increased | increased | increases | further increased when CDP is expressed | increases | further increased when CDP is expressed | differentiate | this type of action was not seen | this type of action was not seen | conspicuously higher increase in the number of alkaline phosphatase-positive cells | increase in the number of alkaline phosphatase-positive cells
no binding | B1 | – | – | – | – | – | – | – | – | – | – | – | – | – | –
